Patent US20100041632A1, “USES OF THE CARBOXY-AMIDO-TRIAZOLE COMPOUNDS AND SALTS THEREOF” (priority 2006, published 2010)

How the values were obtained:
Assay type in all cases: in vivo
[1] = test system: Kunming mice; assay: Hot plate test (analgesic effect)
Experimental: Kunming mice (18-22 g, female) were randomly divided into 4 groups with 20 animals per group.
(§1) Control group with dissolvent: 10 μl PEG400 was administered (ig) twice with the interval of 24 hours. The pain intensity test was carried out 8 hours after the second administration. 200 μl N.S. was injected (sc) 5 minutes before the test.
(§2) Morphine/PEG400 group: 10 μl PEG400 was administered (ig) twice with the interval of 24 hours. The pain intensity test was carried out 8 hours after the second administration. Morphine (2 mg/kg body weight) was injected (sc) 5 minutes before the test.
(§3) CAI/N.S. group: CAI (20 mg/kg body weight, 2 mg/ml) was administered (ig) twice with the interval of 24 hours. The pain intensity test was carried out 8 hours after the second administration. 200 μl N.S. was injected (sc) 5 minutes before the test.
The pain intensity test was carried out 8 hours after the second administration. Morphine (2 mg/kg body weight) was injected (sc) 5 minutes before the test.
The mice were placed onto a hot plate (53±0.5° C.) and the latency periods (second) of hopping responses were recorded as the pain threshold index.

[2] = test system: Kunming mice; assay: Radiant heat test (tail-flick)
Experimental: The radiant heat dolorimeter (Collumbus Instruments) is used in this model with the tail-flick mode and the exposure rate of 20. The latency periods (TFL) starting from the beginning of exposure to the tail-flick responses were recorded as the pain threshold. The exposure time lasted for 16 seconds.
Kunming mice (18-22 g, male) are tested for the basic pain threshold before the test with drug administration, and those with pain threshold longer than 16 seconds are excluded. The selected mice are divided into 4 groups with 15 animals per group.
as §1, §2, §3
The pain intensity test was carried out 8 hours after the second administration, morphine (2 mg/kg body weight) was injected (sc) 5 minutes before the test.
The pain threshold of each mouse was tested before and after morphine or N.S. injection. The values after drug administration minus those before drug administration were considered to be the changing index of pain threshold.

[3] = test system: Kunming mice; assay: Croton oil-induced ear edema mouse model
Experimental: Male Kunming mice, weighted 18-22 g, were randomly divided to the following experiment groups, 20 mice/group:
Negative control: normal saline was injected (ig), 0.1 ml/10 g/day for 3 consecutive days.
Vehicle control: PEG400 was injected (ig), […] for 3 consecutive days.
Positive control: Dexamethasone (0.2 mg/ml) was injected (ip), 0.1 ml/10 g/day for 3 consecutive days.
Test group: CAI or its analogs (2 mg/ml, analogs are as described in example 5) was administered (ig), 0.1 ml/10 g/day for 3 consecutive days.
8 hours after the last administration, 20 μl of croton oil solution (2%) was applied to the right ear of each mouse. The left ear remained untreated as control. The animals were sacrificed 4 hours later, and a piece of tissue was punched from the same position of the treated and untreated ear. The tissues were weighed on a 0.1 mg balance. The difference in weight between the two pieces of tissue of each mouse was taken as a measure of swelling intensity.

[4] = test system: IL-1β; assay: IL-1β levels in paw tissue and serum of adjuvant arthritis rat (ELISA); conditions: AA rats, day 29, ELISA
Experimental: The adjuvant arthritis rat was prepared as described in example 8. Treatment was performed as described in example 8. Blood was collected from eve socket on day 29 and left in room temperature to allow coagulating. Then serum was separated by centrifugation at 3000 rpm for 10 min and kept in −20° C. After animals were sacrificed, the subcutaneous tissue of the right hind paw and that surrounding the tarsotibial joints was removed, broke into pieces, and placed in 5 ml normal saline (0.9%). The tissues were homogenized in a high speed homogenizer. Then the homogenate was centrifuged at 4° C. and 10,000 rpm for 15 min. The supernatants were collected and stored at −20° C. until further analysis.
IL-1β and TNF-α levels in paw tissue and serum were measured using specific rat ELISA kits according to the manufacturer's instructions.

NC(=O)c1nnn(Cc2cc(Cl)c(C(=O)c3ccc(Cl)cc3)c(Cl)c2)c1N [CAI, 5-amino-1-[3,5-dichloro-4-(4-chlorobenzoyl chloride)benzyl]-1H-1,2,3-triazole-4-carboxamide]
Pain threshold (sec, mean ± std) ([1]; hot plate 53±0.5° C., latency of hopping response, CAI 20 mg/kg ig twice, morphine 2 mg/kg sc): 19.9 ± 6.2 s | Analgesic effect in hot plate test (in words) ([1]; two-factor ANOVA): neither have obvious analgesic effect alone | Analgesic effect in radiant heat test (in words) ([2]; compared with the control group): neither have obvious analgesic effect alone | Pain threshold change (seconds, mean ± std) ([2]; tail-flick latency after minus before drug, CAI 20 mg/kg ig twice, morphine 2 mg/kg sc): 2.56 ± 2.62 s | Swelling intensity (mg) mean ± std ([3]; ear weight difference 4 hours after 2% croton oil, CAI/analogs 2 mg/ml ig, dexamethasone 0.2 mg/ml ip, 0.1 ml/10 g/day, 3 days): 7.8 ± 0.2 mg | Anti-inflammatory effect in ear edema model (in words) ([3]; mouse, in vivo): obvious anti-inflammatory effects | IL-1β levels in paw tissue and serum (in words) [4]: significantly reduced
